In general, inhibition refers to the share of the control response that was lost under treatment.

Inhibition and Activity data for nine molecules are collected here from ChEMBL document CHEMBL1136896, “Synthesis and biological evaluation of arylhydrazinocyanoacrylates and N-aryl pyrazolecarboxylates” (2009).

Holding throughout (type): functional
Assay [1] has as its system Brassica napus. In words: Herbicidal activity against Brassica napus at 1.5 kg/hectare administered postemergence of first true leaf measured after 10 days. As to conditions: post-emergence, 240 h.
The test system of assay [2] is Amaranthus retroflexus. In words: Herbicidal activity against Amaranthus retroflexus at 1.5 kg/hectare administered postemergence of first true leaf measured after 10 days. As to conditions: post-emergence, 240 h.
Assay [3] deals with Medicago sativa. In words: Herbicidal activity against Medicago sativa at 1.5 kg/hectare administered postemergence of first true leaf measured after 10 days. As to conditions: post-emergence, 240 h.
The test system of assay [4] is Digitaria sanguinalis. In words: Herbicidal activity against Digitaria sanguinalis at 1.5 kg/hectare administered postemergence of first true leaf measured after 10 days. The settings on record: post-emergence, 240 h.
Assay [5] concerns Amaranthus retroflexus. In words: Herbicidal activity against Amaranthus retroflexus at 1.5 kg/hectare administered preemergence of first true leaf measured after 10 days. The settings on record: pre-emergence, 240 h.
Assay [6] deals with Medicago sativa. The assay is described as follows: Herbicidal activity against Medicago sativa at 1.5 kg/hectare administered preemergence of first true leaf measured after 10 days. As to conditions: pre-emergence, 240 h.
Assay [7] deals with Digitaria sanguinalis. The assay is described as follows: Herbicidal activity against Digitaria sanguinalis (L.) Scop. at 1.5 kg/hectare administered preemergence of first true leaf measured after 10 days. The settings on record: pre-emergence, 240 h.
In assay [8] the test system is Fusarium graminearum. The assay is described as follows: Fungicidal activity against Gibberella zeae assessed as inhibition of mycelium growth at 50 mg/L after 72 hrs.
In assay [9] the test system is Alternaria solani. The assay is described as follows: Fungicidal activity against Alternaria solani assessed as inhibition of mycelium growth at 50 mg/L after 72 hrs.
The test system of assay [10] is Mycosphaerella arachidis. The assay is described as follows: Fungicidal activity against Cercospora arachidicola assessed as inhibition of mycelium growth at 50 mg/L after 72 hrs.
The test system of assay [11] is Botryosphaeria berengeriana. In words: Fungicidal activity against Physalospora pyricola assessed as inhibition of mycelium growth at 50 mg/L after 72 hrs.
In assay [12] the test system is Cladosporium cucumerinum. In words: Fungicidal activity against Cladosporium cucumerinum assessed as inhibition of mycelium growth at 50 mg/L after 72 hrs.
Assay [13] relates to Cucumis sativus. The assay is described as follows: Growth regulatory activity in cucumber assessed as root growth at 10 mg/L incubated in dark for 5 days.
Assay [14] concerns HL-60. The assay is described as follows: Antitumor activity against human HL60 cells at 1000 uM/L after 72 hrs by MTT assay. The settings on record: HL-60, 72 h. Background: Formazan colour is commonly taken as a measure of viable cells.
Assay [15] has as its system HL-60. The assay is described as follows: Antitumor activity against human HL60 cells at 100 uM/L after 72 hrs by MTT assay. The settings on record: HL-60, 72 h.
The subject of assay [16] is HL-60. The assay is described as follows: Antitumor activity against human HL60 cells at 10 uM/L after 72 hrs by MTT assay. As to conditions: HL-60, 72 h.
For assay [17], the system named is HL-60. The assay is described as follows: Antitumor activity against human HL60 cells at 1 uM/L after 72 hrs by MTT assay. As to conditions: HL-60, 72 h.
For assay [18], the system named is Bel-7402. In words: Antitumor activity against human Bel7402 cells at 1000 uM/L after 72 hrs by MTT assay. The settings on record: Bel-7402, 72 h.
The subject of assay [19] is Bel-7402. The assay is described as follows: Antitumor activity against human Bel7402 cells at 100 uM/L after 72 hrs by MTT assay. As to conditions: Bel-7402, 72 h.
The test system of assay [20] is Bel-7402. The assay is described as follows: Antitumor activity against human Bel7402 cells at 10 uM/L after 72 hrs by MTT assay. The settings on record: Bel-7402, 72 h.
Assay [21] deals with Bel-7402. The assay is described as follows: Antitumor activity against human Bel7402 cells at 1 uM/L after 72 hrs by MTT assay. As to conditions: Bel-7402, 72 h.
In assay [22] the test system is Brassica napus. In words: Herbicidal activity against Brassica napus L. at 1.5 kg/hectare administered preemergence of first true leaf measured after 10 days. As to conditions: pre-emergence, 240 h.

In the case of `CCOCCOC(=O)/C(C#N)=C(\NNc1c(Cl)cc(Cl)cc1Cl)C(C)C`, the inhibition at 1500 g/ha came to 0% in assay [1]; 13.3% in assay [2]; 21% in assay [3]; 17.9% in [4]; 0% in [5]; 0% in assay [6]. The inhibition at 1500 g/ha in assay [7] and in assay [22] was 0% in each case. In addition, the inhibition at 50 µg/mL in assay [8] was determined as 4.8%; in assay [9], 10%; in [10] it was 18.2%; in assay [11], 6.7%; in assay [12], 8.3%. Moreover, in [13], the Activity was -2.2%. Besides, the inhibition at 1000 µM in assay [14] worked out at 80.3%; in assay [18], 84.3%. In addition, the inhibition at 100 µM in assay [15] was 20.8%; in [19] it was 9%. Moreover, the inhibition at 10 µM came to 0% in assay [16] and 12.7% in [20]. Besides, the inhibition at 1 µM in assay [17] came out at 0%; in assay [21], 5.2%.

Turning to `CCOCCOC(=O)c1c(SC)nn(-c2ccccc2)c1N`, the inhibition at 1500 g/ha came to 53.6% in assay [1]; 32% in assay [2]; 38.3% in assay [3]; 0% in assay [4]; 10% in [5]; 0% in [6]. Moreover, the inhibition at 1500 g/ha in assay [7] and in [22] was 0% in each case. In addition, the inhibition at 50 µg/mL worked out at 42.2% in [8]; 8% in [9]; 41.2% in assay [10]; 0% in assay [11]; 12.7% in assay [12]. Besides, in assay [13], the Activity is recorded as 50.4%. Also, the inhibition at 1000 µM was found to be 10.6% in assay [14] and 49% in [18]. Further, the values for the inhibition at 100 µM in [15] and in [19] were 0.6% and 0%, respectively. Besides, the inhibition at 10 µM in assay [16] stood at 6.8%; in assay [20], 0%. The inhibition at 1 µM worked out at 4.3% in [17] and 0% in [21].

With `CCOCCOC(=O)c1c(C(C)C)nn(-c2ccc(Cl)cc2)c1N`, the inhibition at 1500 g/ha in assay [1] is 26.4%; in assay [2] it was 0%; in assay [3] it was 0%; in [4] it was 0%; in [5], 0%; in assay [6], 0%. Besides, the inhibition at 1500 g/ha in [7] is 0%; in assay [22], 40%. Besides, the inhibition at 50 µg/mL in [8] amounted to 44.4%; in [9], 0%; in assay [10], 23.5%; in assay [11], 33.3%; in assay [12] it was 23.6%. Besides, the Activity in assay [13] is recorded as 38.2%.

Take `CCOCCOC(=O)c1c(SC)nn(-c2ccc([N+](=O)[O-])cc2)c1N`: the inhibition at 1500 g/ha is 0% in [1]; 0% in assay [2]; 38.3% in assay [3]; 0% in assay [4]; 0% in [5]; 0% in assay [6]. Also, the inhibition at 1500 g/ha in assay [7] and in assay [22] was 0% in each case. Besides, the inhibition at 50 µg/mL was 51.1% in assay [8]; 8% in assay [9]; 11.8% in assay [10]; 13.3% in assay [11]; 12.7% in assay [12]. Moreover, the Activity in [13] was determined as 54.4%. For the same molecule, the inhibition at 1000 µM was 28.5% in [14] and 48.4% in assay [18]. The inhibition at 100 µM was determined as 22.3% in [15] and 4.2% in [19]. The inhibition at 10 µM in [16] and in assay [20] was 0% in each case. Besides, the inhibition at 1 µM in [17] was 2.4%; in [21], 5.5%.

In the case of `CCOCCOC(=O)c1c(C(C)C)nn(-c2ccc(C)cc2)c1N`, the inhibition at 1500 g/ha in assay [1] is 40.7%; in [2], 0%; in [3] it was 20%; in assay [4] it was 0%; in assay [5], 0%; in assay [6] it was 0%. The inhibition at 1500 g/ha in [7] amounted to 0%; in [22], 15%. Also, the inhibition at 50 µg/mL in assay [8] turned out to be 51.1%; in [9], 12%; in assay [10] it was 20.6%; in [11] it was 13.3%; in [12], 40%. Also, the Activity in assay [13] came out at 21.9%.

In the case of `CCOCCOC(=O)c1c(CC)nn(-c2ccc([N+](=O)[O-])cc2)c1N`, the inhibition at 1500 g/ha in assay [1] is 15%; in assay [2], 0%; in assay [3] it was 0%; in assay [4], 0%; in assay [5], 0%; in [6], 0%. Moreover, the inhibition at 1500 g/ha in [7] and in assay [22] was 0% throughout. The inhibition at 50 µg/mL in assay [8] was found to be 11.1%; in assay [9] it was 8%; in assay [10] it was 39.2%; in assay [11], 40%; in assay [12] it was 36.4%. For the same molecule, the Activity in assay [13] is listed as 5.6%. The inhibition at 1000 µM in assay [14] came out at 41.5%; in [18] it was 45.2%. Besides, the inhibition at 100 µM in assay [15] was determined as 13.1%; in assay [19], 0%. Besides, the inhibition at 10 µM in assay [16] is 1.3%; in assay [20], 0%. The inhibition at 1 µM in assay [17] turned out to be 0.8%; in [21], 0%.

With `CCOCCOC(=O)c1c(SC)nn(-c2ccc(C)cc2)c1N`, the inhibition at 1500 g/ha in assay [1] worked out at 52.7%; in assay [2], 38%; in assay [3], 0%; in assay [4], 0%; in assay [5], 0%; in assay [6] it was 0%. Also, the inhibition at 1500 g/ha was 0% in assay [7] and 10% in assay [22]. For the same molecule, the inhibition at 50 µg/mL stood at 46.7% in [8]; 28% in assay [9]; 35.3% in assay [10]; 22.7% in assay [11]; 20% in [12]. Moreover, in assay [13], the Activity is listed as 66.6%.

`CCOCCOC(=O)/C(C#N)=C(/CC)NNc1c(Cl)cc(Cl)cc1Cl`: the inhibition at 1500 g/ha in assay [1] stood at 0%; in assay [2], 13.3%; in assay [3], 5.6%; in assay [4], 1.8%; in assay [5], 8.8%; in assay [6], 0%. The inhibition at 1500 g/ha in assay [7] and in [22] was 0% in each case. Further, the inhibition at 50 µg/mL in assay [8] was determined as 19.2%; in assay [9], 25%; in assay [10], 15.5%; in assay [11], 46.7%; in assay [12], 22.2%. The Activity in [13] was -16.5%. Besides, the inhibition at 1000 µM in assay [14] worked out at 84.3%; in [18] it was 95.9%. Also, the inhibition at 100 µM in assay [15] was 36.6%; in [19], 3.6%. The values for the inhibition at 10 µM in assay [16] and in assay [20] were 23.1% and 3.9%, respectively. Further, the inhibition at 1 µM in assay [17] turned out to be 2.5%; in [21] it was 0%.

Turning to `CCOCCOC(=O)c1c(C(C)C)nn(-c2ccc([N+](=O)[O-])cc2)c1N`, the inhibition at 1500 g/ha in assay [1], in assay [2], in assay [3], in assay [4], in assay [5] and in [6] was 0% throughout. The inhibition at 1500 g/ha in assay [7] and in assay [22] was 0% each time. In addition, the inhibition at 50 µg/mL in assay [8] was determined as 46.7%; in assay [9] it was 16%; in [10], 44.1%; in assay [11] it was 46.7%; in assay [12], 40%. Also, in [13], the Activity is 21.9%. Further, the inhibition at 1000 µM in assay [14] is 10%; in assay [18] it was 48.6%. Besides, the inhibition at 100 µM in assay [15] was 27.8%; in [19] it was 10.7%. In addition, the results for the inhibition at 10 µM in assay [16] and in assay [20] were 9% and 6.2%, respectively. The inhibition at 1 µM in assay [17] and in assay [21] was 0% throughout.
